In patent publication US11839212B2, “Synergistic pesticidal compositions and methods for delivery of insecticidal active ingredients” (0903608 B.C. Ltd., priority 2018, dated 2023):
Read-outs that look alike come from different tables or passages of the source.

What was measured:
Assay in all cases: Synergistic Growth Inhibition Assay (MIC and FIC index, 96-well, resazurin)
Assay type in all cases: cell-based
Alternaria solani = details: Alternaria solani, […], read-out: MIC (B)
Experimental: In some embodiments, the synergistic action between the pesticidal active ingredient, and the at least one C6-C10 (or alternatively C11 or C12) saturated or unsaturated aliphatic acid components of the pesticidal compositions according to embodiments of the present disclosure was tested using a Synergistic Growth Inhibition Assay, which is derived from and related to a checkerboard assay as is known in the art for testing of combinations of antimicrobial agents. In the Synergistic Growth Inhibition Assay used in accordance with some embodiments of the present disclosure, multiple dilutions of combinations of pesticidal active ingredient and at least one C6-C10 saturated or unsaturated aliphatic acid agents are tested in individual cells for inhibitory activity against a target pest or pathogenic organism. In one such embodiment, the combinations of pesticidal active ingredient and C6-C10 (or alternatively C11 or C12) saturated or unsaturated aliphatic acid agents may preferably be tested in decreasing concentrations. In a further such embodiment, the combinations of pesticidal active ingredient and C6-C10 (or alternatively C11 or C12) saturated or unsaturated aliphatic acid agents may be tested in increasing concentrations. These multiple combinations of the pesticidal active ingredient and at least one C6-C10 (or alternatively C11 or C12) saturated or unsaturated aliphatic acid agents may be prepared in 96-well microtiter plates. In one such embodiment, the Synergistic Growth Inhibition Assay then comprises rows which each contain progressively decreasing concentrations of the pesticidal active ingredient and one or more C6-C10 (or alternatively C11 or C12) saturated or unsaturated aliphatic acid agents to test for the MIC of the agents in combination at which growth of the target pest or pathogen is inhibited. Thus, each well of the microtiter plate is a unique combination of the two agents, at which inhibitory efficacy of the combination against the target pest or pathogen can be determined.
In one embodiment according to the present disclosure, for each row of microtiter cells in the Synergistic Growth Inhibition Assay, the FIC index is calculated from the lowest concentration of the pesticidal active ingredient and one or more C6-C10 saturated or unsaturated aliphatic acid agents necessary to inhibit growth of a target pest or pathogen. The FIC of each component is derived by dividing the concentration of the agent present in that well of the microtiter plate by the minimal inhibitory concentration (MIC) needed of that agent alone to inhibit growth of the target pest or pathogen. The FIC index is then the sum of these values for both agents in that well of the microtiter plate. […] Fractional inhibitory concentration indices may then used as measure of synergy. […] When the FIC index is equal to 1, the combination is additive.
Then, serial dilutions of these initial compositions in successive wells in the row of the microtiter plate were used to assay the pesticidal composition under the same conditions to determine the concentration of the composition combining the two agents corresponding to the microtiter well in which growth inhibition of the target pest or organism ceases.
A culture of the representative fungal pathogen, namely Fusarium oxysporum, Botrytis cinerea, or Sclerotinia sclerotiorum, for example, is grown to exponential phase in potato dextrose broth (PDB).

Sclerotinia sclerotiorum = details: Sclerotinia sclerotiorum, […], Compound B alone
Method in brief: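 Checkerboard of pesticidal active ingredient combined with C6–C10 (or C11/C12) aliphatic acids in serial dilutions against Sclerotinia sclerotiorum. Growth scored by resazurin colour change plus visual inspection; FIC index is the sum of each agent's concentration divided by its MIC alone, with 1 indicating additivity.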

Botrytis cinerea = details: Botrytis cinerea, 48 h, Compound B alone
Method in brief: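 Checkerboard microdilution of pesticidal active ingredient combined with C6–C10 (or C11/C12) aliphatic acid against Botrytis cinerea, with growth read by resazurin colour change plus visual check. FIC index = sum of each agent's concentration in the inhibiting well divided by its MIC alone; 1 denotes additivity.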

Fusarium oxysporum = details: Fusarium oxysporum, Compound B alone
Method in brief: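 Checkerboard dilutions of pesticidal active plus C6–C10 (or C11/C12) aliphatic acid in 96-well plates; growth scored by resazurin colour change, optionally visual.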

[1] = Table 60, Compound B alone, 7 days incubation
[2] = 7 days incubation, read-out: MIC (B)
[3] = Table 33, 7 days incubation, read-out: MIC (B)
[4] = Table 35, 7 days incubation, read-out: MIC (B)
[5] = Table 36, 7 days incubation, read-out: MIC (B)
[6] = Table 37, 7 days incubation, read-out: MIC (B)
[7] = Table 38, 7 days incubation, read-out: MIC (B)
[8] = Table 41, 7 days incubation, read-out: MIC (B)
[9] = Table 43, 48 hours incubation, read-out: MIC (B)
[10] = Table 44, 48 hours incubation, read-out: MIC (B)
[11] = Table 45, 48 hours incubation, read-out: MIC (B)
[12] = Table 47, 48 hours incubation, read-out: MIC (B)
[13] = Table 48, 48 hours incubation, read-out: MIC (B)
[14] = Table 49, 48 hours incubation, read-out: MIC (B)
[15] = Table 54, 48 hours incubation, read-out: MIC (B)
[16] = 48 h, Table 32, 48 hours incubation, read-out: MIC (B)
[17] = Table 50, 48 hours incubation, read-out: MIC (B)
[18] = 48 h, Table 27, 48 hours incubation, read-out: MIC (B)
[19] = Table 56, 48 hours incubation, read-out: MIC (B)
[20] = Table 58, 48 hours incubation, read-out: MIC (B)

Row | SMILES | MIC (Alternaria solani; [1]) | MIC (Sclerotinia sclerotiorum; [2]) | MIC (Sclerotinia sclerotiorum; [3]) | MIC (Sclerotinia sclerotiorum; [4]) | MIC (Sclerotinia sclerotiorum; [5]) | MIC (Sclerotinia sclerotiorum; [6]) | MIC (Sclerotinia sclerotiorum; [7]) | MIC (Sclerotinia sclerotiorum; [8]) | MIC (Botrytis cinerea; [9]) | MIC (Botrytis cinerea; [10]) | MIC (Botrytis cinerea; [11]) | MIC (Botrytis cinerea; [12]) | MIC (Botrytis cinerea; [13]) | MIC (Botrytis cinerea; [14]) | MIC (Botrytis cinerea; [15]) | MIC (Fusarium oxysporum; [16]) | MIC (Botrytis cinerea; [17]) | MIC (Fusarium oxysporum; [18]) | MIC (Botrytis cinerea; [19]) | MIC (Botrytis cinerea; [20]) | also measured
1 | CCCCCC=CCC(=O)O [3-Nonenoic acid] | 78.1 µg/mL | 78.1 µg/mL | 19.5 µg/mL | 39.1 µg/mL | 39.1 µg/mL | 78.1 µg/mL | 78.1 µg/mL | 39.1 µg/mL | 78.1 µg/mL | 78.1 µg/mL | 78.1 µg/mL | 78.1 µg/mL | 78.1 µg/mL | 78.1 µg/mL | 78.1 µg/mL | 156 µg/mL |  |  |  |  | 
2 | C=CCCCC(=O)O [5-Hexenoic acid] | 312 µg/mL |  | 156 µg/mL | 156 µg/mL |  |  |  |  | 156 µg/mL | 78.1 µg/mL | 312 µg/mL |  |  |  | 312 µg/mL |  | 156 µg/mL | 312 µg/mL |  |  | 
3 | C=CCCCCCCCC(=O)O [9-Decenoic acid, 9-decenoic acid] | 39.1 µg/mL | 78.1 µg/mL | 39.1 µg/mL | 39.1 µg/mL | 39.1 µg/mL | 156 µg/mL | 78.1 µg/mL | 78.1 µg/mL | 156 µg/mL | 78.1 µg/mL | 78.1 µg/mL | 78.1 µg/mL | 78.1 µg/mL | 156 µg/mL | 78.1 µg/mL | 78.1 µg/mL | 39.1 µg/mL | 312 µg/mL | 78.1 µg/mL | 156 µg/mL | MIC (Sclerotinia sclerotiorum; Table 39, 7 days incubation, read-out: MIC (B)): 39.1 µg/mL; MIC (Sclerotinia sclerotiorum; Table 40, 7 days incubation, read-out: MIC (B)): 78.1 µg/mL; MIC (Botrytis cinerea; Table 46, 48 hours incubation, read-out: MIC (B)): 39.1 µg/mL; MIC (Fusarium oxysporum; 24 h, Table 3, 24 hour incubation, read-out: MIC(B)): 71.7 µg/mL; MIC (Fusarium oxysporum; 24 h, Table 4, 24 hour incubation, read-out: MIC (B)): 71.7 µg/mL; MIC (Fusarium oxysporum; 48 h, Table 28, 48 hours incubation, read-out: MIC (B)): 312 µg/mL; MIC (Fusarium oxysporum; 48 h, Table 30, 48 hours incubation, read-out: MIC (B)): 156 µg/mL
4 | C/C=C/C=C/C(=O)O [(2E,4E)-2,4-hexadienoic acid] | 125 µg/mL |  | 125 µg/mL |  |  |  |  |  | 62.5 µg/mL | 62.5 µg/mL |  |  |  |  |  |  |  | 25 µg/mL | 125 µg/mL | 250 µg/mL | MIC (Fusarium oxysporum; 24 h, Table 1, 24 hour incubation, read-out: MIC(B)): 125 µg/mL; MIC (Fusarium oxysporum; 24 h, Table 2, 24 hour incubation, read-out: MIC (B)): 125 µg/mL
5 | CCCCCC(=O)O [Hexanoic acid, hexanoic acid] |  |  |  |  |  |  |  |  |  |  |  |  |  |  |  |  |  |  |  |  | MIC (Alternaria solani): 156 µg/mL; MIC (Sclerotinia sclerotiorum; read-out: MIC (B), Table 16, incubation 7 days): 39.1 µg/mL; MIC (Sclerotinia sclerotiorum; read-out: MIC (B), Table 17, incubation 7 days): 39.1 µg/mL; MIC (Sclerotinia sclerotiorum; read-out: MIC (B), Table 19, incubation 7 days): 78.1 µg/mL; MIC (Botrytis cinerea; read-out: MIC (B), Table 21, incubation 48 hours): 78.1 µg/mL; MIC (Botrytis cinerea; read-out: MIC (B), Table 22, incubation 48 hours): 78.1 µg/mL; MIC (Botrytis cinerea; read-out: MIC (B), Table 25, 48 hours incubation): 78.1 µg/mL; MIC (Fusarium oxysporum; 24 h, read-out: MIC(B), Table 7, 24 hour incubation): 145 µg/mL; MIC (Fusarium oxysporum; read-out: MIC (B), Table 8): 290 µg/mL
